Data as given in US9617602B2, “Methods and compositions for determining resistance to androgen receptor therapy” (Aragon Pharmaceuticals, Inc., priority 2012, dated 2017).
Positions count from the first letter of the chain named.

How the values were obtained:
F876L AR = biological target: T1, F876L AR (Homo sapiens, UniProt P10275, DEL79-80/DUP473-473/F877L)
T1 sequence (P10275 with tags, fused parts or gaps DEL79-80/DUP473-473/F877L): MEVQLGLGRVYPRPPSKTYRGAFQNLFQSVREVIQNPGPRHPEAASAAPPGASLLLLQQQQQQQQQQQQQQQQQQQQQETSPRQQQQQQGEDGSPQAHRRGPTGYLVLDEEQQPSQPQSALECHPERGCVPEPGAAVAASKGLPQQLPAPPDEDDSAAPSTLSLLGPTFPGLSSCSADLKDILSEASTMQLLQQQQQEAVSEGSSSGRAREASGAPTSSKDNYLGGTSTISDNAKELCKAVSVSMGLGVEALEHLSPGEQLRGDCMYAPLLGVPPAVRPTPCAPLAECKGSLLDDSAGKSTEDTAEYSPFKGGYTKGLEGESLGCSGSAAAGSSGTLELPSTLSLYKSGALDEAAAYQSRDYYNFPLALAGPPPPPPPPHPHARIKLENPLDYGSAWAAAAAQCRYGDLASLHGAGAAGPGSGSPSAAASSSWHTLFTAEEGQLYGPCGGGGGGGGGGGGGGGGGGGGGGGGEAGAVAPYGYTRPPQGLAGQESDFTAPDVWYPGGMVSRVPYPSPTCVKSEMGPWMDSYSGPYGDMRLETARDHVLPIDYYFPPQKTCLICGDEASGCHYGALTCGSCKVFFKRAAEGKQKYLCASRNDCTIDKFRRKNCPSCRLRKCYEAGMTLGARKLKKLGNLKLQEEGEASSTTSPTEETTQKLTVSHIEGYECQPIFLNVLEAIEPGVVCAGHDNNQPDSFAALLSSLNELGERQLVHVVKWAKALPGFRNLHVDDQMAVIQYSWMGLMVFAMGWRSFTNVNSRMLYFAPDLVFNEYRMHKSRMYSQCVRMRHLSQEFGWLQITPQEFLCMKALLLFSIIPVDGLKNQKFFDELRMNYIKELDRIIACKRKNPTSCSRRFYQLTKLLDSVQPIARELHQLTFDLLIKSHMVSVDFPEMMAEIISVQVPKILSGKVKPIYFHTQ
Description: (§1) Transcriptional reporter assays were performed by seeding 100 μL of HEPG2 cells at a density of 250,000 cells/mL into 96-well cell culture plates in MEM supplemented with 10% charcoal stripped serum and allowed to attach overnight at 37° C.
(§2) Cells were transiently transfected using Lipofectin® (Life Technologies) according to the manufacturer's protocol.
(§3) Following 48 hour incubation the medium was removed and the cells were lysed in 40 μL of lysis buffer (25 mM Tris Phosphate, 2 mM CDTA, 10% Glycerol, 0.5% Triton X-100, 2 mM DTT).
(§4) The AR transcriptional reporter assays were performed essentially as described above with minor modifications. Triplicate transfections were performed using 50 ng pCDNA3-AR or pCDNA3-AR mutant, 65 ng 4×ARE-Luciferase, 20 ng pRL (Promega), and 25 ng pCMX.

wild-type VP16-AR = wild-type VP16-AR (Homo sapiens, UniProt P10275)
Description: (§5) AR point mutations were generated in VP16-AR using the QuickChange II Site-Directed Mutagenesis Kit (Agilent Technologies, Santa Clara, Calif.) according to the manufacturer's protocol.
(§6) Transcription assays were performed essentially as described above. […] Luciferase activity was measured as described above.

F876L VP16-AR = F876L VP16-AR (Homo sapiens, UniProt P10275, DEL79-80/DUP473-473/F877L)
Description: as §5, §6

wild-type AR = biological target: T2, wild-type AR (Homo sapiens, UniProt P10275, DEL79-80/DUP473-473)
T2 sequence (P10275 with tags, fused parts or gaps DEL79-80/DUP473-473): T1 sequence (P10275 with tags, fused parts or gaps DEL79-80/DUP473-473/F877L) with L876F
Description: as §1, §2, §3, §4

## CC(C)(O)C(=O)Nc1ccc([N+](=O)[O-])c(C(F)(F)F)c1 [Hydroxyflutamide, hydroxyflutamide]
F876L AR
  4X ARE Reporter Assay F876L Emax: 0.8 ± 0.2 percent maximal R1881 response
wild-type VP16-AR
  AR-VP16 WT Emax: 42.28 ± 4.44 percent maximal R1881 response
F876L VP16-AR
  AR-VP16 F876L Emax: 5.36 ± 5.35 percent maximal R1881 response
wild-type AR
  4X ARE Reporter Assay WT Emax: 28.9 ± 5.0 percent maximal R1881 response
